Data as given in patent publication US20250042894A1, “PROTEIN TYROSINE PHOSPHATASE INHIBITORS AND METHODS OF USE THEREOF” (Calico Life Sciences LLC, priority 2021, published 2025).
Where two headings read alike, the source gives them in different places.

Key:
[1] = system: IFNγ-induced STAT1 phosphorylation (pSTAT1) in B16F10 cells; experiment: B16F10 Phospho-STAT1 HTRF proximal pharmacodynamic (PD) assay; format: cell-based, murine; settings: for EC50: B16-F10; for Thiochromane x-fold>potency cellular: pSTAT1 EC50 of chromane comparator over thiochromane
Description: Example 45: B16F10 (Murine Melanoma Cells) Phospho-STAT1 HTRF Proximal Pharmacodynamic (PD) Assay
B16F10 cells were grown and maintained in high glucose DMEM (Gibco, Catalog #11965-092, Dun Laoghaire Co Dublin) supplemented with 10% fetal bovine serum (Gibco, Catalog #10082-139, Dun Laoghaire Co Dublin). The cells were pelleted and resuspended in high glucose DMEM without phenol red (Gibco, Catalog #11054-020, Dun Laoghaire Co Dublin), supplemented with 10% fetal bovine serum and plated in a 384 well Corning plate (product #3765, Corning, NY) at 11,000 cells per well in a volume of 20 μL. The cells were dosed with the compounds of interest using an Echo Liquid Handler (Beckman Coulter, Brea, CA) at 50 μM top dose with 3-fold dilutions down to 0.002679 μM for a 10-point dose response. The plate was incubated for 3 hours at 37° C. and subsequently treated with recombinant mouse IFNγ (R&D Systems, Catalog #485-MI, Minneapolis, MN; 100 nM final concentration) for 10 minutes at 37° C. to induce STAT1 phosphorylation followed by 3.3 μM staurosporine treatment for 1 hour at 37° C. to terminate phosphorylation. Media was then aspirated and 20 μL of 1× lysis buffer/blocking reagent (Cisbio Phospho-STAT1 kit, part #63ADK026PEH, Bedford, MA) was added. The plate was placed on a plate shaker for 30 minutes at room temperature, sealed, and stored at −80° C. until needed. To thaw, the plate was placed on shaker at room temperature until completely thawed while the antibody master mix was made (1:40 Phospho-STAT1 Eu Cryptate antibody, 1:40 Phospho-STAT1 d2 antibody, with the detection buffer; Cisbio Phospho-STAT1 kit, part #63ADK026PEH, Bedford, MA). The antibody master mix was then dispensed at 4 μL per well into a 384 ProxiPlate Plus (PerkinElmer, part #6008289, Waltham, MA) and 16 μL of lysate was added from the Corning plate to the Proxiplate using a VIAFLO 384 (INTEGRA). The plate was incubated for 3 hours at room temperature and read on an EnVision® (Perkin Elmer) plate reader with laser excitation at 335 nm and emission at 665 nm. Dotmatics Studies (Bishop's Stortford, UK) was utilized to generate all dose-response curves and calculate EC50s and are shown in Table 2.

[2] = target: T1, His tagged PTPN2 (TC45) protein (Homo sapiens, UniProt P17706); experiment: Mobility Shift Assay (MSA) for PTPN2 inhibitors; format: biochemical; settings: for Thiochromane x-fold>potency biochemical: PTPN2 MSA IC50 of chromane comparator over thiochromane
T1 construct: His; made in house
T1 sequence (P17706 1-387 isoform P17706-2): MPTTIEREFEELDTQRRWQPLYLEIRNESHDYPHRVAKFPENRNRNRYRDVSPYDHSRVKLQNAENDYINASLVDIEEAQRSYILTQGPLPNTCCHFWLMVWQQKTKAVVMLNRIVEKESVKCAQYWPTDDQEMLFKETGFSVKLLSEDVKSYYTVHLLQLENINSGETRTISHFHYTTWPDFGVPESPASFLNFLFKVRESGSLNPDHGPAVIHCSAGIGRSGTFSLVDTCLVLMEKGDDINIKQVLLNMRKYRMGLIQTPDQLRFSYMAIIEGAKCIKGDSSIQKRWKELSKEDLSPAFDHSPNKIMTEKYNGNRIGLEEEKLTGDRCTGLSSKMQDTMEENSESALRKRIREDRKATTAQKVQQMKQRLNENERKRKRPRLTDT
Description: Example 43: Mobility Shift Assay (MSA) Used to Determine Potency of PTPN2 Inhibitors
Compound activity was determined using in house His tagged PTPN2 (TC45) protein (SEQ ID NO: 1) in an in vitro enzymatic reaction. The enzymatic assay used to determine activity was a mobility shift assay using a LabChip EZ Reader by Caliper Life Sciences. The enzymatic reaction was carried out in assay buffer (50 mM HEPES pH 7.5, 1 mM EGTA, 10 mM EDTA, 0.01% Tween® 20, and 2 mM DTT). The compounds were dispensed on a white 384 well ProxiPlate™ (PerkinElmer Catalog #6008289) plate using the Labcyte Echo at varying concentrations (12 point, 1:3 dilution). The enzyme (at 0.5 nM) was incubated with compound for 10 minutes at room temperature. Thereafter, the substrate (phosphorylated insulin receptor probe sequence: ((OG488)-(NH—CH2—CH2—O—CH2—CH2—O—CH2—CO)-T-R-D-I—(PY)-E-T-D-Y—Y—R—K—K—NH2) (SEQ ID NO: 2) was added at 2 μM to the plates and incubated for another 10 minutes at room temperature. Finally, a quench solution (water and 4-bromo-3-(2-oxo-2-propoxyethoxy)-5-(3-{[1-(phenylmethanesulfonyl)piperidin-4-yl]amino}phenyl)thiophene-2-carboxylic acid) was added to the plates, which were then run on the EZ Reader (excitation 488 nm, emission 530 nm) to measure % conversion (the amount of phosphorylated substrate which was de-phosphorylated by PTPN2). […] The % inhibition was then used to calculate the IC50 values.

[3] = target: T2, His tagged full-length PTPN1 protein (Homo sapiens, UniProt P18031); experiment: Mobility Shift Assay (MSA) for PTPN1 inhibitors; format: biochemical; settings: enzyme 0.5 nM, substrate 2 μM, 10 minutes preincubation at room temperature
T2 construct: His; made in house
T2 sequence (P18031 1-435): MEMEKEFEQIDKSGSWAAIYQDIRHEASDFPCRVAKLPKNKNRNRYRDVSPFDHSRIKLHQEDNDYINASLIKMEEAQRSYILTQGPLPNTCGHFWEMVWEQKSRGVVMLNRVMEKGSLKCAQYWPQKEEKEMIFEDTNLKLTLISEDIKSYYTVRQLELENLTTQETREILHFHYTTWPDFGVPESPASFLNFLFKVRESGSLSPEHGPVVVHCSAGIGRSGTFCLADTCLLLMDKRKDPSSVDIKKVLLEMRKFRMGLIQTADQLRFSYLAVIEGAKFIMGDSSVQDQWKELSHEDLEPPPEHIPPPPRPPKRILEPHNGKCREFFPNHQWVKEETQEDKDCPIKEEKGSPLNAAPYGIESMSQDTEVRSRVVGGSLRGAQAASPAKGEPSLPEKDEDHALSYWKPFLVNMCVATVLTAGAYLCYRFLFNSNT
Description: Example 44: Mobility Shift Assay (MSA) Used to Determine Potency of PTPN1 Inhibitors
Compound activity was determined using in house His tagged full-length PTPN1 protein (SEQ ID NO: 3) in an in vitro enzymatic reaction. The enzymatic assay used to determine activity is a mobility shift assay using a LabChip EZ Reader by Caliper Life Sciences. The enzymatic reaction was carried out in assay buffer (50 mM HEPES pH 7.5, 1 mM EGTA, 10 mM EDTA, 0.010% Tween® 20, and 2 mM DTT). The compounds were dispensed on a white 384 well ProxiPlate™ (PerkinElmer Cat #6008289) plate using a Labcyte Echo® liquid handler at varying concentrations (12 point, 1:3 dilution). The enzyme (at 0.5 nM) was incubated with compound for 10 minutes at room temperature. Thereafter, the substrate (phosphorylated insulin receptor probe sequence: ((OG488)-(NH—CH2—CH2—O—CH2—CH2—O—CH2—CO)-T-R-D-I—(PY)-E-T-D-Y—Y—R—K—K—NH2) (SEQ ID NO: 2) was added at 2 μM to the plates and incubated for another 10 minutes at room temperature. Finally, a quench solution (water and 4-bromo-3-(2-oxo-2-propoxyethoxy)-5-(3-{[1-(phenylmethanesulfonyl)piperidin-4-yl]amino}phenyl)thiophene-2-carboxylic acid) was added to the plates, which were then run on the EZ Reader (excitation 488 nm, emission 530 nm) to measure % conversion (the amount of phosphorylated substrate which was de-phosphorylated by PTPN1). […] The % inhibition was then used to calculate the IC50 values.

[4] = Table 2, 3 hours compound, then mouse IFNγ 100 nM 10 minutes, top dose 50 μM, read-out: B16F10 IFNγ Induced pSTAT1 EC50
[5] = Mus musculus, Table 3, B16F10 cells, IFNγ-induced, thiochromanes (X = S) and chromane comparators (X = O), read-out: pSTAT1 EC50
[6] = enzyme 0.5 nM, substrate 2 μM, 10 minutes preincubation at room temperature

SMILES	EC50 [1, 4] [nM]	EC50 [1, 5] [nM]	Thiochromane x-fold>potency cellular ([1]; Table 3)	Thiochromane x-fold>potency biochemical ([2]; Table 3)	IC50 [2, 6] [nM]	IC50 [3] [nM]	IC50 ([2]; Table 3, thiochromanes (X = S) and chromane comparators (X = O)) [nM]
O=C1CN(c2c(O)cc3c(c2F)C[C@H](NCC2CC(c4ccccc4)C2)CS3)S(=O)(=O)N1 (stereo partly drawn) [Compound 135, 5-[(3S)-5-fluoro-7-hydroxy-3-{[(3-phenylcyclobutyl)methyl]amino}-3,4-dihydro-2H-1-benzothiopyran-6-yl]-1λ^6,2,5-thiadiazolidine-1,1,3-trione]	688	688	>72.7	1.9	< 10	10 to 100	
O=C1CN(c2c(O)cc3c(c2F)C[C@H](NCCc2ccccc2)CS3)S(=O)(=O)N1 [Compound 123, 5-{(3S)-5-fluoro-7-hydroxy-3-[(2-phenylethyl)amino]-3,4-dihydro-2H-1-benzothiopyran-6-yl}-1λ^6,2,5-thiadiazolidine-1,1,3-trione]	2760				< 10	10 to 100	
CC(C)CCN[C@@H]1CSc2cc(O)c(N3CC(=O)NS3(=O)=O)c(F)c2C1 [Compound 103, 5-{(3S)-5-fluoro-7-hydroxy-3-[(3-methylbutyl)amino]-3,4-dihydro-2H-1-benzothiopyran-6-yl}-1λ^6,2,5-thiadiazolidine-1,1,3-trione]	528	528	13.2	11.9	< 10	< 10	1
O=C1CN(c2c(O)cc3c(c2F)C[C@H](NCCC2(CO)CCCC2)CS3)S(=O)(=O)N1 [Compound 105, 5-[(3S)-5-fluoro-7-hydroxy-3-({2-[1-(hydroxymethyl)cyclopentyl]ethyl}amino)-3,4-dihydro-2H-1-benzothiopyran-6-yl]-1λ^6,2,5-thiadiazolidine-1,1,3-trione]	4810				< 10	10 to 100	
CC1=C(CCN[C@@H]2CSc3cc(O)c(N4CC(=O)NS4(=O)=O)c(F)c3C2)C(C)(C)CCC1 [Compound 140, 5-[(3S)-5-fluoro-7-hydroxy-3-{[2-(2,6,6-trimethylcyclohex-1-en-1-yl)ethyl]amino}-3,4-dihydro-2H-1-benzothiopyran-6-yl]-1λ^6,2,5-thiadiazolidine-1,1,3-trione]	2950	2950	>16.9	1.5	10 to 100	10 to 100	
O=C1CN(c2c(O)cc3c(c2F)C[C@H](NCC2(CF)CC2)CS3)S(=O)(=O)N1 [Compound 128, 5-[(3S)-5-fluoro-3-({[1-(fluoromethyl)cyclopropyl]methyl}amino)-7-hydroxy-3,4-dihydro-2H-1-benzothiopyran-6-yl]-1λ^6,2,5-thiadiazolidine-1,1,3-trione]	25700	25700	>1.9	1.2	10 to 100	10 to 100	
O=C1CN(c2c(O)cc3c(c2F)C[C@H](NCC2(F)CC2)CS3)S(=O)(=O)N1 [Compound 125, 5-[(3S)-5-fluoro-3-{[(1-fluorocyclopropyl)methyl]amino}-7-hydroxy-3,4-dihydro-2H-1-benzothiopyran-6-yl]-1λ^6,2,5-thiadiazolidine-1,1,3-trione]	> 50000				10 to 100	10 to 100	
O=C1CN(c2c(O)cc3c(c2F)C[C@H](NCC2CCC(C(F)(F)F)CC2)CS3)S(=O)(=O)N1 (stereo partly drawn) [Compound 139, 5-[(3S)-5-fluoro-7-hydroxy-3-({[4-(trifluoromethyl)cyclohexyl]methyl}amino)-3,4-dihydro-2H-1-benzothiopyran-6-yl]-1λ^6,2,5-thiadiazolidine-1,1,3-trione]	> 50000	> 50000	~1.0	5.4	< 10	10 to 100	
CC1(CCN[C@@H]2CSc3cc(O)c(N4CC(=O)NS4(=O)=O)c(F)c3C2)CC1 [Compound 132, 5-[(3S)-5-fluoro-7-hydroxy-3-{[2-(1-methylcyclopropyl)ethyl]amino}-3,4-dihydro-2H-1-benzothiopyran-6-yl]-1λ^6,2,5-thiadiazolidine-1,1,3-trione]	1580				< 10	10 to 100	
O=C1CN(c2c(O)cc3c(c2F)C[C@H](NCCC2(CO)CCC2)CS3)S(=O)(=O)N1 [Compound 104, 5-[(3S)-5-fluoro-7-hydroxy-3-({2-[1-(hydroxymethyl)cyclobutyl]ethyl}amino)-3,4-dihydro-2H-1-benzothiopyran-6-yl]-1λ^6,2,5-thiadiazolidine-1,1,3-trione]	3350				< 10	10 to 100	
